# pIC50: −log10 of the molar value.
# Biological target: Human V1b receptor (Homo sapiens (Human), UniProt P47901)
# Experiment: Binding Test for V1b Receptor ([3H]AVP, crude membrane preparation of 293FT cells)
# Settings: inhibition of [3H]AVP binding (0.4 to 1 nmol/L), room temperature, 60 minutes
# Summary of the method: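 Crude membranes from 293FT cells transiently expressing human V1b, incubated with [3H]AVP (0.4 to 1 nmol/L) and compound (0.01 nmol/L–1 μmol/L final) in Tris pH 7.4 with MgCl2 and 0.1% BSA, 60 min at room temperature. Bound label collected by filtration. Nonspecific binding defined with unlabeled AVP; IC50 from dose-response curve.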
# Chain of Human V1b receptor (P47901 whole entry): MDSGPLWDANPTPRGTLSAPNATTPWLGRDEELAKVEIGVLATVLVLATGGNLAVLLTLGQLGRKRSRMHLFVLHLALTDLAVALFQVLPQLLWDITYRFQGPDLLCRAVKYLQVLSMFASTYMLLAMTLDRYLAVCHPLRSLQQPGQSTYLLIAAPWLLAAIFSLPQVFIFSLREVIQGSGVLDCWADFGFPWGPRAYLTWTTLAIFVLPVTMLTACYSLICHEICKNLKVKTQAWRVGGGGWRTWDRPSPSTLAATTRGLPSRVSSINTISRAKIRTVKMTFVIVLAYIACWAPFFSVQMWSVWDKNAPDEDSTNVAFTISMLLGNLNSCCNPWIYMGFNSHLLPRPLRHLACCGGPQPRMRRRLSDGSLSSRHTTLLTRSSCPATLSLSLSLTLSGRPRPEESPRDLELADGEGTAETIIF
row,pIC50,SMILES
1,6.00 to 7.00,"COc1cccc(-c2nc(-c3ccc(CCN4CCN(C(C)=O)CC4)cc3)nn2CC(=O)NC(C)C)c1 [Example B-33, 2-[3-{4-[2-(4-acetylpiperazin-1-yl)ethyl]phenyl}-5-(3-methoxyphenyl)-1H-1,2,4-triazol-1-yl]-N-(propan-2-yl)acetamide]"
2,7.00 to 8.00,"COc1cccc(-n2c(CC(=O)NC(C)(C)C)nn(-c3ccc(CCN4CCOCC4)cn3)c2=O)c1 [Example D-08, N-tert-butyl-2-[4-(3-methoxyphenyl)-1-{5-[2-(morpholin-4-yl)ethyl]pyridin-2-yl}-5-oxo-4,5-dihydro-1H-1,2,4-triazol-3-yl]acetamide]"
3,6.00 to 7.00,"CC(C)NC(=O)Cc1nc(-c2cccc(CCN3CCCCC3)c2)sc1-c1cccc(Cl)c1 [Example C-16, 2-[5-(3-chlorophenyl)-2-{3-[2-(piperidin-1-yl)ethyl]phenyl}-1,3-thiazol-4-yl]-N-(propan-2-yl)acetamide]"
4,8.66,"CC(C)NC(=O)Cn1c(-c2cccc(Cl)c2)cn(-c2ccc(CCN3CCOCC3)cc2)c1=O [Example C-19, 2-[5-(3-chlorophenyl)-3-{4-[2-(morpholin-4-yl)ethyl]phenyl}-2-oxo-2,3-dihydro-1H-imidazol-1-yl]-N-(propan-2-yl)acetamide]"
5,6.00 to 7.00,"CC(C)NC(=O)Cc1nn(-c2ccc(CCN3CCC(C(F)(F)F)CC3)cc2)c(=O)n1-c1cccc(Cl)c1 [Example D-59, 2-[4-(3-chlorophenyl)-5-oxo-1-(4-{2-[4-(trifluoromethyl)piperidin-1-yl]ethyl}phenyl)-4,5-dihydro-1H-1,2,4-triazol-3-yl]-N-(propan-2-yl)acetamide]"
6,7.96,"COc1cc(-c2nc(-c3ccc(CCN4CCCOCC4)cc3)cn2CC(=O)NC(C)C)ccc1F [Example A-23, 2-[2-(4-fluoro-3-methoxyphenyl)-4-{4-[2-(1,4-oxazepan-4-yl)ethyl]phenyl}-1H-imidazol-1-yl]-N-(propan-2-yl)acetamide]"
7,7.00 to 8.00,"CCN(CC)CCc1ccc(-c2cn(CC(=O)NC(C)C)c(-c3ccc(F)c(OC)c3)n2)cc1 [Example A-31, 2-[4-{4-[2-(diethylamino)ethyl]phenyl}-2-(4-fluoro-3-methoxyphenyl)-1H-imidazol-1-yl]-N-(propan-2-yl)acetamide]"
8,> 8.00,"COc1cccc(-c2nc(-c3ccc(CCN4CCSCC4)cc3)nn2CC(=O)NC(C)C)c1 [Example B-28, 2-[5-(3-methoxyphenyl)-3-{4-[2-(thiomorpholin-4-yl)ethyl]phenyl}-1H-1,2,4-triazol-1-yl]-N-(propan-2-yl)acetamide]"
9,7.00 to 8.00,"COc1cccc(-c2nc(-c3ccc(CCN4C[C@@H](C)O[C@@H](C)C4)cc3)nn2CC(=O)NC(C)C)c1 [Example B-29, 2-[3-(4-{2-[(2R,6S)-2,6-dimethylmorpholin-4-yl]ethyl}phenyl)-5-(3-methoxyphenyl)-1H-1,2,4-triazol-1-yl]-N-(propan-2-yl)acetamide]"
10,6.00 to 7.00,"CC(C)NC(=O)Cn1cc(C(=O)N2CCC(CCN3CCOCC3)C2)nc1-c1cccc(Cl)c1 (stereo not drawn) [Example A-49, 2-[2-(3-chlorophenyl)-4-({3-[2-(morpholin-4-yl)ethyl]pyrrolidin-1-yl}carbonyl)-1H-imidazol-1-yl]-N-(propan-2-yl)acetamide]"
11,7.82,"CC(C)NC(=O)Cn1cc(-c2ccc(CCN3CCCCC3)cc2)nc1-c1cccc(Cl)c1 [Example A-01, 2-[2-(3-chlorophenyl)-4-{4-[2-(piperidin-1-yl)ethyl]phenyl}-1H-imidazol-1-yl]-N-(propan-2-yl)acetamide]"
12,7.00 to 8.00,"CCC1COCCN1CCc1ccc(-n2nc(CC(=O)NC(C)C)n(-c3cccc(Cl)c3)c2=O)cc1 [Example D-54, 2-[4-(3-chlorophenyl)-1-{4-[2-(3-ethylmorpholin-4-yl)ethyl]phenyl}-5-oxo-4,5-dihydro-1H-1,2,4-triazol-3-yl]-N-(propan-2-yl)acetamide]"
13,7.00 to 8.00,"CC(C)NC(=O)Cc1nn(-c2ccc(CCN3CCCCC3)cc2)c(=O)n1-c1cccc(Cl)c1 [Example D-46, 2-[4-(3-chlorophenyl)-5-oxo-1-{4-[2-(piperidin-1-yl)ethyl]phenyl}-4,5-dihydro-1H-1,2,4-triazol-3-yl]-N-(propan-2-yl)acetamide]"
14,7.00 to 8.00,"COc1cncc(-c2nc(-c3ccc(CCN4CCOCC4)cc3)cn2CC(=O)NC(C)C)c1 [Example A-40, 2-[2-(5-methoxypyridin-3-yl)-4-{4-[2-(morpholin-4-yl)ethyl]phenyl}-1H-imidazol-1-yl]-N-(propan-2-yl)acetamide]"
15,8.41,"CC(C)NC(=O)Cc1nn(-c2ccc(CC(C)N3CCOCC3)cc2)c(=O)n1-c1cccc(Cl)c1 [Example D-17, 2-[4-(3-chlorophenyl)-1-{4-[2-(morpholin-4-yl)propyl]phenyl}-5-oxo-4,5-dihydro-1H-1,2,4-triazol-3-yl]-N-(propan-2-yl)acetamide]"
16,6.00 to 7.00,"CC(C)NC(=O)Cn1cc(C(=O)NC2CCC(N3CCOCC3)CC2)nc1-c1cccc(Cl)c1 (stereo not drawn) [Example A-47, 2-(3-chlorophenyl)-N-[4-(morpholin-4-yl)cyclohexyl]-1-[2-oxo-2-(propan-2-ylamino)ethyl]-1H-imidazole-4-carboxamide]"
17,7.00 to 8.00,"COc1cccc(-c2nc(-c3ccc(CCN4CCC(C)(O)CC4)cc3)nn2CC(=O)NC(C)C)c1 [Example B-36, 2-[3-{4-[2-(4-hydroxy-4-methylpiperidin-1-yl)ethyl]phenyl}-5-(3-methoxyphenyl)-1H-1,2,4-triazol-1-yl]-N-(propan-2-yl)acetamide]"
18,6.00 to 7.00,"CC(C)NC(=O)Cn1cc(-c2cccc(OCCN3CCCCC3)c2)nc1-c1cccc(Cl)c1 [Example A-34, 2-[2-(3-chlorophenyl)-4-{3-[2-(piperidin-1-yl)ethoxy]phenyl}-1H-imidazol-1-yl]-N-(propan-2-yl)acetamide]"
19,6.00 to 7.00,"CCN(CCOC)CCc1ccc(-c2cn(CC(=O)NC(C)C)c(-c3ccc(F)c(OC)c3)n2)cc1 [Example A-32, 2-[4-(4-{2-[ethyl(2-methoxyethyl)amino]ethyl}phenyl)-2-(4-fluoro-3-methoxyphenyl)-1H-imidazol-1-yl]-N-(propan-2-yl)acetamide]"

row,SMILES,pIC50
1,"COc1cccc(-n2c(CC(=O)NC(C)C)nn(-c3ccc(CCN4C5CCC4COC5)cc3)c2=O)c1 [Example D-39, 2-[4-(3-methoxyphenyl)-1-{4-[2-(3-oxa-8-azabicyclo[3.2.1]oct-8-yl)ethyl]phenyl}-5-oxo-4,5-dihydro-1H-1,2,4-triazol-3-yl]-N-(propan-2-yl)acetamide]",7.00 to 8.00
2,"COc1cc(CCN2C3CCC2COC3)ccc1-n1nc(CC(=O)NC(C)C)n(-c2cccc(Cl)c2)c1=O [Example D-25, 2-[4-(3-chlorophenyl)-1-{2-methoxy-4-[2-(3-oxa-8-azabicyclo[3.2.1]oct-8-yl)ethyl]phenyl}-5-oxo-4,5-dihydro-1H-1,2,4-triazol-3-yl]-N-(propan-2-yl)acetamide]",6.00 to 7.00
3,"COc1cccc(-c2nc(-c3ccc(CCN4C5CCC4COC5)cc3)nn2CC(=O)NC(C)C)c1 [Example B-17, 2-[5-(3-methoxyphenyl)-3-{4-[2-(3-oxa-8-azabicyclo[3.2.1]oct-8-yl)ethyl]phenyl}-1H-1,2,4-triazol-1-yl]-N-(propan-2-yl)acetamide]",8.85
4,"COc1cc(-n2c(CC(=O)NC(C)(C)C)nn(-c3ccc(CCN4C5CCC4COC5)cn3)c2=O)ccc1F [Example D-12, N-tert-butyl-2-[4-(4-fluoro-3-methoxyphenyl)-1-{5-[2-(3-oxa-8-azabicyclo[3.2.1]oct-8-yl)ethyl]pyridin-2-yl}-5-oxo-4,5-dihydro-1H-1,2,4-triazol-3-yl]acetamide]",8.15
5,"CC(C)NC(=O)Cc1nn(-c2ccc(CCN3C4CCC3COC4)cc2F)c(=O)n1-c1cccc(Cl)c1 [Example D-24, 2-[4-(3-chlorophenyl)-1-{2-fluoro-4-[2-(3-oxa-8-azabicyclo[3.2.1]oct-8-yl)ethyl]phenyl}-5-oxo-4,5-dihydro-1H-1,2,4-triazol-3-yl]-N-(propan-2-yl)acetamide]",7.00 to 8.00
6,"COc1cc(-n2c(CC(=O)NC(C)C)nn(-c3ccc(CCN4C5CCC4COC5)cc3)c2=O)ccc1F [Example D-37, 2-[4-(4-fluoro-3-methoxyphenyl)-1-{4-[2-(3-oxa-8-azabicyclo[3.2.1]oct-8-yl)ethyl]phenyl}-5-oxo-4,5-dihydro-1H-1,2,4-triazol-3-yl]-N-(propan-2-yl)acetamide]",7.92
7,"CC(C)NC(=O)Cc1nc(-c2ccc(CCN3C4CCC3COC4)cc2)nn1-c1cccc(Cl)c1 [Example C-22, 2-[1-(3-chlorophenyl)-3-{4-[2-(3-oxa-8-azabicyclo[3.2.1]oct-8-yl)ethyl]phenyl}-1H-1,2,4-triazol-5-yl]-N-(propan-2-yl)acetamide]",8.06
8,"COc1cccc(-c2nc(-c3ccc(CCN4C5CCC4COC5)cn3)nn2CC(=O)NC(C)(C)C)c1 [Example B-07, N-tert-butyl-2-[5-(3-methoxyphenyl)-3-{5-[2-(3-oxa-8-azabicyclo[3.2.1]oct-8-yl)ethyl]pyridin-2-yl}-1H-1,2,4-triazol-1-yl]acetamide]",8.37
9,"CC(C)NC(=O)Cn1cc(-c2ccc(CCN3C4CCC3COC4)cn2)nc1-c1cccc(Cl)c1 [Example A-27, 2-[2-(3-chlorophenyl)-4-{5-[2-(3-oxa-8-azabicyclo[3.2.1]oct-8-yl)ethyl]pyridin-2-yl}-1H-imidazol-1-yl]-N-(propan-2-yl)acetamide]",8.44
10,"CC(C)NC(=O)Cc1nn(-c2ccc(CCN3C4CCC3COC4)cn2)c(=O)n1-c1ccc(F)c(Cl)c1 [Example D-29, 2-[4-(3-chloro-4-fluorophenyl)-1-{5-[2-(3-oxa-8-azabicyclo[3.2.1]oct-8-yl)ethyl]pyridin-2-yl}-5-oxo-4,5-dihydro-1H-1,2,4-triazol-3-yl]-N-(propan-2-yl)acetamide]",7.00 to 8.00
11,"COc1cccc(-c2nc(-c3ccc(CCN4C5CCC4COC5)cn3)nn2CC(=O)NC(C)C)c1 [Example B-05, 2-[5-(3-methoxyphenyl)-3-{5-[2-(3-oxa-8-azabicyclo[3.2.1]oct-8-yl)ethyl]pyridin-2-yl}-1H-1,2,4-triazol-1-yl]-N-(propan-2-yl)acetamide]",7.96
